Results on four molecules are retold here after ChEMBL document CHEMBL5126603, “Discovery of Clinical Candidate CHF-6366: A Novel Super-soft Dual Pharmacology Muscarinic Antagonist and β2 Agonist (MABA) for the Inhaled Treatment of Respiratory Diseases” (J Med Chem, 2022).

A short description of data set [1]: Metabolic stability in human lung S9 fraction assessed as half life at 1 uM measured after 0 to 60 mins in presence of NADPH by LC-MS/MS analysis. It is filed as ADME, subcellular. Conditions: time 0-60 min.
The nature of data set [2]: Metabolic stability in human plasma assessed as half life at 5 uM measured upto 120 mins by LC-MS/MS analysis. It counts as ADME, cell-free.
A short description of data set [3]: Metabolic stability in rat plasma assessed as half life at 5 uM measured upto 120 mins by LC-MS/MS analysis. It counts as ADME, cell-free.
A short description of data set [4]: Metabolic stability in Dunkin-Hartley guinea pig plasma assessed as half life at 5 uM measured upto 120 mins by LC-MS/MS analysis. It is filed as ADME, cell-free, Cavia porcellus.
Data set [5] concerns Trachea. The data set can be described thus: In vivo bifunctional antagonist activity at muscarinic M3 receptor /agonist activity at beta-2 adrenoceptor in Dunkin-Hartley guinea pig trachea assessed as time duration for inhibition of carbachol induced contraction measured […]. It counts as functional, Cavia porcellus.
Data set [6] deals with Trachea. As to the kind of experiment: In vivo bifunctional antagonist activity at muscarinic M3 receptor /agonist activity at beta-2 adrenoceptor in Dunkin-Hartley guinea pig trachea assessed as inhibition of carbachol induced contraction. It counts as functional, tissue-based. Conditions: Cavia porcellus.
The nature of data set [7]: Cmax in Dunkin-Hartley guinea pig lung at 500 nmol/Kg, IT(Intratracheal) measured after 72 hrs by LC/MS-MS analysis. It counts as ADME, tissue-based, Cavia porcellus. Set-up: time 72 hrs, dose 500 nmol/kg, route it(Intratracheal). Conditions: inhaled or intranasal.
Data set [8] can be described thus: Tmax in Dunkin-Hartley guinea pig lung at 500 nmol/Kg, IT(Intratracheal) measured after 72 hrs by LC/MS-MS analysis. It counts as ADME, tissue-based, Cavia porcellus. Conditions: inhaled or intranasal.
Data set [9] in a line: AUClast in Dunkin-Hartley guinea pig lung at 500 nmol/Kg, IT(Intratracheal) measured after 72 hrs by LC/MS-MS analysis. It counts as ADME, tissue-based, Cavia porcellus. Conditions: in vivo, inhaled_or_intranasal.
A short description of data set [10]: AUCinfinity in Dunkin-Hartley guinea pig lung at 500 nmol/Kg, IT(Intratracheal) measured after 72 hrs by LC/MS-MS analysis. It counts as ADME, tissue-based, Cavia porcellus. Conditions: in vivo, inhaled_or_intranasal. Further details: dose 500 nmol/kg, time 72 hrs, route it(Intratracheal).
Data set [11] can be described thus: Half life in Dunkin-Hartley guinea pig lung at 500 nmol/Kg, IT(Intratracheal) measured after 72 hrs by LC/MS-MS analysis. It is filed as ADME, tissue-based, Cavia porcellus. Conditions: inhaled or intranasal.
A short description of data set [12]: Cmax in Dunkin-Hartley guinea pig plasma at 500 nmol/Kg, IT(Intratracheal) measured after 72 hrs by LC/MS-MS analysis. It is filed as ADME, cell-free, Cavia porcellus. Set-up: dose 500 nmol/kg, time 72 hrs, route it(Intratracheal). Conditions: inhaled or intranasal.
The nature of data set [13]: Tmax in Dunkin-Hartley guinea pig plasma at 500 nmol/Kg, IT(Intratracheal) measured after 72 hrs by LC/MS-MS analysis. It is filed as ADME, cell-free, Cavia porcellus. Conditions: inhaled or intranasal.
Data set [14] in a line: AUClast in Dunkin-Hartley guinea pig plasma at 500 nmol/Kg, IT(Intratracheal) measured after 72 hrs by LC/MS-MS analysis. It counts as ADME, cell-free, Cavia porcellus. Further details: time 72 hrs, dose 500 nmol/kg, route it(Intratracheal). Conditions: inhaled or intranasal.
A short description of data set [15]: AUCinfinity in Dunkin-Hartley guinea pig plasma at 500 nmol/Kg, IT(Intratracheal) measured after 72 hrs by LC/MS-MS analysis. It counts as ADME, cell-free, Cavia porcellus. Set-up: dose 500 nmol/kg, time 72 hrs, route it(Intratracheal). Conditions: inhaled or intranasal.
A short description of data set [16]: Half life in Dunkin-Hartley guinea pig plasma at 500 nmol/Kg, IT(Intratracheal) measured after 72 hrs by LC/MS-MS analysis. It counts as ADME, cell-free, Cavia porcellus. Conditions: inhaled or intranasal.
Data set [17] is described as follows: Mutagenicity in Salmonella typhimurium assessed as induction of reverse mutation by Ames test. Conditions: salmonella enterica subsp. enterica serovar typhimurium. It counts as toxicity.
Data set [18] in a line: Mutagenicity in Escherichia coli assessed as induction of reverse mutation by Ames test. It is filed as toxicity. (In the Ames test, an excess of revertant colonies over the control signals mutagenicity.)
Data set [19] deals with Trachea. As to the kind of experiment: Bifunctional antagonist activity at muscarinic M3 receptor /agonist activity at beta-2 adrenoceptor in Dunkin-Hartley guinea pig trachea assessed as inhibition of acetylcholine-induced bronchoconstriction at 1 nmol/Kg, IT(Intratracheal) measured after 5 mins by Konzett-Roessler methodology relative to control. Conditions: Cavia porcellus. It is filed as functional.

In data set [20] the test system is Trachea. As to the kind of experiment: Bifunctional antagonist activity at muscarinic M3 receptor /agonist activity at beta-2 adrenoceptor in Dunkin-Hartley guinea pig trachea assessed as inhibition of acetylcholine-induced bronchoconstriction at 1 nmol/Kg, IT(Intratracheal) measured after 15 mins by Konzett-Roessler methodology relative to control. It counts as functional. Conditions: Cavia porcellus, 0.25 h.

The test system of data set [21] is Trachea. As to the kind of experiment: Bifunctional antagonist activity at muscarinic M3 receptor /agonist activity at beta-2 adrenoceptor in Dunkin-Hartley guinea pig trachea assessed as inhibition of acetylcholine-induced bronchoconstriction at 1 nmol/Kg, IT(Intratracheal) measured after 30 mins by Konzett-Roessler methodology relative to control. Conditions: Cavia porcellus, 0.5 h. It counts as functional.

Each structure is given as a SMILES string.

With `COc1cc(C(=O)OCCCCNC[C@H](O)c2ccc(O)c3[nH]c(=O)ccc23)ccc1COc1cccc([C@@H](NC(=O)O[C@H]2CN3CCC2CC3)c2ccccc2)c1`, the half-life (commonly how long it takes for the measured level to halve) at 1 µM in data set [1] is 89.3 min. Moreover, the half-life at 5 µM in data set [2] came to 21 min; in data set [3], 12 min; in data set [4], 83.5 min. Also, in the data set on Trachea [5], the Time was less than 135 min. The IC50 – broadly, the concentration that gives 50% inhibition – in the data set on Trachea [6] was 1260 pM.

For `Cn1nc(C(=O)O)cc1COc1cccc([C@@H](NC(=O)O[C@H]2CN3CCC2CC3)c2ccccc2)c1`, the figures for the Cmax in [7] and in data set [12] were 1450 ng/g and 41.7 ng/g, respectively. For the same molecule, the Tmax in [8] and in data set [13] was 4.98 min in each case. The AUClast in [9] amounted to 6226 ng·h/g. Besides, the AUC in data set [10] is 6465 ng·h/g. Moreover, the half-life is 316 min in [11] and 1240 min in data set [16]. Also, the AUC(0-t) (as a rule, the area under the concentration-time curve up to a stated or last time point) at 72 h in [14] worked out at 179 ng·h/mL. The AUC(0-inf) (commonly total exposure, with the tail of the curve extrapolated) in data set [15] came out at 296 ng·h/mL. The Activity entry in [17] and in [18] was “Non-Toxic” throughout. In addition, the values for the inhibition in vivo at 0.001 µmol/kg with Trachea [19], in the data set on Trachea [20] and in the data set on Trachea [21] were 0.84%, 1.92% and 3.36%, respectively.

With `O=C(N[C@@H](c1ccccc1)c1cccc(OCc2cccc(C(=O)OCCCCNC[C@H](O)c3ccc(O)c4[nH]c(=O)ccc34)c2)c1)O[C@H]1CN2CCC1CC2`, the half-life at 1 µM in data set [1] is 17.2 min. For the same molecule, the half-life at 5 µM is less than 5 min in [2] and 103 min in data set [3]. Further, in the data set on Trachea [5], the Time was more than 225 min. In the data set on Trachea [6], the IC50 is 501 pM.

For the molecule `O=c1ccc2c([C@@H](O)CNCCCCO)ccc(O)c2[nH]1`, the values for the Cmax in data set [7] and in data set [12] were 334 ng/g and 13.8 ng/g, respectively. Further, the Tmax in data set [8] and in data set [13] was 4.98 min throughout. Further, the AUClast in data set [9] was determined as 2429 ng·h/g. In addition, the AUC in [10] came to 3517 ng·h/g. For the same molecule, the figures for the half-life in data set [11] and in [16] were 858 min and 464 min, respectively. The AUC(0-t) at 72 h in data set [14] came to 30.7 ng·h/mL. The molecule also gave an AUC(0-inf) in [15] of 58.9 ng·h/mL. The Activity result in [17] and in data set [18] was “Non-Toxic” throughout. For the same molecule, the inhibition in vivo (in general, the change of the read-out against control, counted positive when it falls) at 0.001 µmol/kg came to 51.4% in the data set on Trachea [19], 23.2% in the data set on Trachea [20] and 22% with Trachea [21].
